Reference: patent publication US6358885B1, “Substituted phenylheterocyclic herbicides” (Mississippi State University, priority 1992, dated 2002)

Experiments:
Test in all cases: Test B preemergence/postemergence greenhouse plant response rating 0 to 10
Conditions in all cases: 0 to 10 scale
barley = format: in vivo, Hordeum vulgare
Source text: (§1) Seeds of barley (Hordeum vulgare), barnyardgrass (Echinochloa crus-galli), bedstraw (Galium aparine), blackgrass (Alopecurus myosuroides), […] (Bromus secalinus), chickweed (Stellaria media), cocklebur (Xanthium pensylvanicum), corn (Zea mays), cotton (Gossypium hirsutum), crabgrass (Digitaria spp.), giant foxtail (Setaria faberii), lambsquarters (Chenopodium album), morningglory (Ipomoea hederacea), rape (Brassica napus), rice (Oryza sativa), sorghum (Sorghum bicolor), soybean (Glycine max), sugar beet (Beta vulgaris), velvetleaf (Abutilon theophrasti), wheat (Triticum aestivum), wild buckwheat (Polygonum convolvulus), and wild oat (Avena fatua) and purple nutsedge. (Cyperus rotundus) tubers were planted and treated preemergence with test chemicals dissolved in a non-phytotoxic solvent. At the same time, these crop and weed species were also treated with postemergence applications of test chemicals. Plants ranged in height from two to eighteen cm (one to four leaf stage) for postemergence treatments. Treated plants and controls were maintained in a greenhouse for twelve to sixteen days, after which all species were compared to controls and visually evaluated. […] A dash (-) response means no test result.

barnyardgrass = format: in vivo, Echinochloa crus-galli
Source text: as §1

bedstraw = format: in vivo, Galium aparine
Source text: as §1

blackgrass = format: in vivo, Alopecurus myosuroides
Source text: as §1

cheatgrass = format: in vivo, Bromus secalinus
Source text: as §1

chickweed = format: in vivo, Stellaria media
Source text: as §1

cocklebur = format: in vivo, Xanthium pensylvanicum
Source text: as §1

corn = format: in vivo, Zea mays
Source text: as §1

cotton = format: in vivo, Gossypium hirsutum
Source text: as §1

crabgrass = format: in vivo, Digitaria spp.
Source text: as §1

giant foxtail = format: in vivo, Setaria faberii
Source text: as §1

lambsquarters = format: in vivo, Chenopodium album
Source text: as §1

morningglory = format: in vivo, Ipomoea hederacea
Source text: as §1

rape = format: in vivo, Brassica napus
Source text: as §1

rice = format: in vivo, Oryza sativa
Source text: as §1

sorghum = format: in vivo, Sorghum bicolor
Source text: as §1

soybean = format: in vivo, Glycine max
Source text: as §1

sugar beet = format: in vivo, Beta vulgaris
Source text: as §1

velvetleaf = format: in vivo, Abutilon theophrasti
Source text: as §1

wheat = format: in vivo, Triticum aestivum
Source text: as §1

wild buckwheat = format: in vivo, Polygonum convolvulus
Source text: as §1

wild oat = format: in vivo, Avena fatua
Source text: as §1

purple nutsedge = format: in vivo, Cyperus rotundus
Source text: as §1

CCC(=O)Oc1cc(-c2nn3c(c2Cl)CCCC3)c(F)cc1Cl [Compound 47]
Plant response rating, Barley (barley; POSTEMERGENCE, Rate 50 g/ha): 5
Plant response rating, Barley (barley; POSTEMERGENCE, Rate 200 g/ha): 4
Plant response rating, Barley (barley; PREEMERGENCE, Rate 50 g/ha): 0
Plant response rating, Barley (barley; Rate 200 g/ha, PREEMERGENCE): 0
Plant response rating, Barnyardgrass (barnyardgrass; POSTEMERGENCE, Rate 50 g/ha): 6
Plant response rating, Barnyardgrass (barnyardgrass; POSTEMERGENCE, Rate 200 g/ha): 9
Plant response rating, Barnyardgrass (barnyardgrass; PREEMERGENCE, Rate 50 g/ha): 0
Plant response rating, Barnyardgrass (barnyardgrass; Rate 200 g/ha, PREEMERGENCE): 0
Plant response rating, Bedstraw (bedstraw; POSTEMERGENCE, Rate 50 g/ha): 9
Plant response rating, Bedstraw (bedstraw; POSTEMERGENCE, Rate 200 g/ha): 10
Plant response rating, Bedstraw (bedstraw; PREEMERGENCE, Rate 50 g/ha): 9
Plant response rating, Bedstraw (bedstraw; Rate 200 g/ha, PREEMERGENCE): 9
Plant response rating, Blackgrass (blackgrass; POSTEMERGENCE, Rate 50 g/ha): 4
Plant response rating, Blackgrass (blackgrass; POSTEMERGENCE, Rate 200 g/ha): 8
Plant response rating, Blackgrass (blackgrass; PREEMERGENCE, Rate 50 g/ha): 2
Plant response rating, Blackgrass (blackgrass; Rate 200 g/ha, PREEMERGENCE): 3
Plant response rating, Cheatgrass (cheatgrass; POSTEMERGENCE, Rate 50 g/ha): 4
Plant response rating, Cheatgrass (cheatgrass; POSTEMERGENCE, Rate 200 g/ha): 4
Plant response rating, Cheatgrass (cheatgrass; PREEMERGENCE, Rate 50 g/ha): 0
Plant response rating, Cheatgrass (cheatgrass; Rate 200 g/ha, PREEMERGENCE): 0
Plant response rating, Chickweed (chickweed; POSTEMERGENCE, Rate 50 g/ha): 9
Plant response rating, Chickweed (chickweed; POSTEMERGENCE, Rate 200 g/ha): 9
Plant response rating, Chickweed (chickweed; PREEMERGENCE, Rate 50 g/ha): 0
Plant response rating, Chickweed (chickweed; Rate 200 g/ha, PREEMERGENCE): 2
Plant response rating, Cocklebur (cocklebur; POSTEMERGENCE, Rate 50 g/ha): 6
Plant response rating, Cocklebur (cocklebur; POSTEMERGENCE, Rate 200 g/ha): 9
Plant response rating, Cocklebur (cocklebur; PREEMERGENCE, Rate 50 g/ha): 2
Plant response rating, Cocklebur (cocklebur; Rate 200 g/ha, PREEMERGENCE): 3
Plant response rating, Corn (corn; POSTEMERGENCE, Rate 50 g/ha): 4
Plant response rating, Corn (corn; POSTEMERGENCE, Rate 200 g/ha): 5
Plant response rating, Corn (corn; PREEMERGENCE, Rate 50 g/ha): 0
Plant response rating, Corn (corn; Rate 200 g/ha, PREEMERGENCE): 0
Plant response rating, Cotton (cotton; POSTEMERGENCE, Rate 50 g/ha): 10
Plant response rating, Cotton (cotton; POSTEMERGENCE, Rate 200 g/ha): 10
Plant response rating, Cotton (cotton; PREEMERGENCE, Rate 50 g/ha): 0
Plant response rating, Cotton (cotton; Rate 200 g/ha, PREEMERGENCE): 2
Plant response rating, Crabgrass (crabgrass; POSTEMERGENCE, Rate 50 g/ha): 3
Plant response rating, Crabgrass (crabgrass; POSTEMERGENCE, Rate 200 g/ha): 6
Plant response rating, Crabgrass (crabgrass; PREEMERGENCE, Rate 50 g/ha): 0
Plant response rating, Crabgrass (crabgrass; Rate 200 g/ha, PREEMERGENCE): 0
Plant response rating, Giant foxtail (giant foxtail; POSTEMERGENCE, Rate 50 g/ha): 4
Plant response rating, Giant foxtail (giant foxtail; PREEMERGENCE, Rate 50 g/ha): 0
Plant response rating, Giant foxtail (giant foxtail; Rate 200 g/ha, POSTEMERGENCE): 6
Plant response rating, Giant foxtail (giant foxtail; Rate 200 g/ha, PREEMERGENCE): 5
Plant response rating, Lambsquarter (lambsquarters; POSTEMERGENCE, Rate 50 g/ha): 7
Plant response rating, Lambsquarter (lambsquarters; PREEMERGENCE, Rate 50 g/ha): 9
Plant response rating, Lambsquarter (lambsquarters; Rate 200 g/ha, POSTEMERGENCE): 10
Plant response rating, Lambsquarter (lambsquarters; Rate 200 g/ha, PREEMERGENCE): 9
Plant response rating, Morningglory (morningglory; POSTEMERGENCE, Rate 50 g/ha): 9
Plant response rating, Morningglory (morningglory; PREEMERGENCE, Rate 50 g/ha): 1
Plant response rating, Morningglory (morningglory; Rate 200 g/ha, POSTEMERGENCE): 10
Plant response rating, Morningglory (morningglory; Rate 200 g/ha, PREEMERGENCE): 3
Plant response rating, Rape (rape; POSTEMERGENCE, Rate 50 g/ha): 3
Plant response rating, Rape (rape; PREEMERGENCE, Rate 50 g/ha): 1
Plant response rating, Rape (rape; Rate 200 g/ha, POSTEMERGENCE): 6
Plant response rating, Rape (rape; Rate 200 g/ha, PREEMERGENCE): 2
Plant response rating, Rice (rice; POSTEMERGENCE, Rate 50 g/ha): 4
Plant response rating, Rice (rice; PREEMERGENCE, Rate 50 g/ha): 0
Plant response rating, Rice (rice; Rate 200 g/ha, POSTEMERGENCE): 5
Plant response rating, Rice (rice; Rate 200 g/ha, PREEMERGENCE): 0
Plant response rating, Sorghum (sorghum; POSTEMERGENCE, Rate 50 g/ha): 3
Plant response rating, Sorghum (sorghum; PREEMERGENCE, Rate 50 g/ha): 0
Plant response rating, Sorghum (sorghum; Rate 200 g/ha, POSTEMERGENCE): 4
Plant response rating, Sorghum (sorghum; Rate 200 g/ha, PREEMERGENCE): 0
Plant response rating, Soybean (soybean; POSTEMERGENCE, Rate 50 g/ha): 7
Plant response rating, Soybean (soybean; PREEMERGENCE, Rate 50 g/ha): 0
Plant response rating, Soybean (soybean; Rate 200 g/ha, POSTEMERGENCE): 7
Plant response rating, Soybean (soybean; Rate 200 g/ha, PREEMERGENCE): 0
Plant response rating, Sugar beet (sugar beet; POSTEMERGENCE, Rate 50 g/ha): 10
Plant response rating, Sugar beet (sugar beet; PREEMERGENCE, Rate 50 g/ha): 1
Plant response rating, Sugar beet (sugar beet; Rate 200 g/ha, POSTEMERGENCE): 10
Plant response rating, Sugar beet (sugar beet; Rate 200 g/ha, PREEMERGENCE): 8
Plant response rating, Velvetleaf (velvetleaf; POSTEMERGENCE, Rate 50 g/ha): 8
Plant response rating, Velvetleaf (velvetleaf; PREEMERGENCE, Rate 50 g/ha): 2
Plant response rating, Velvetleaf (velvetleaf; Rate 200 g/ha, POSTEMERGENCE): 9
Plant response rating, Velvetleaf (velvetleaf; Rate 200 g/ha, PREEMERGENCE): 4
Plant response rating, Wheat (wheat; POSTEMERGENCE, Rate 50 g/ha): 3
Plant response rating, Wheat (wheat; PREEMERGENCE, Rate 50 g/ha): 0
Plant response rating, Wheat (wheat; Rate 200 g/ha, POSTEMERGENCE): 6
Plant response rating, Wheat (wheat; Rate 200 g/ha, PREEMERGENCE): 2
Plant response rating, Wild buckwheat (wild buckwheat; POSTEMERGENCE, Rate 50 g/ha): 10
Plant response rating, Wild buckwheat (wild buckwheat; PREEMERGENCE, Rate 50 g/ha): 0
Plant response rating, Wild buckwheat (wild buckwheat; Rate 200 g/ha, POSTEMERGENCE): 10
Plant response rating, Wild buckwheat (wild buckwheat; Rate 200 g/ha, PREEMERGENCE): 9
Plant response rating, Wild oat (wild oat; POSTEMERGENCE, Rate 50 g/ha): 3
Plant response rating, Wild oat (wild oat; PREEMERGENCE, Rate 50 g/ha): 0
Plant response rating, Wild oat (wild oat; Rate 200 g/ha, POSTEMERGENCE): 3
Plant response rating, Nutsedge (purple nutsedge; POSTEMERGENCE, Rate 50 g/ha): 2
Plant response rating, Nutsedge (purple nutsedge; PREEMERGENCE, Rate 50 g/ha): 0
Plant response rating, Nutsedge (purple nutsedge; Rate 200 g/ha, POSTEMERGENCE): 8
Plant response rating, Nutsedge (purple nutsedge; Rate 200 g/ha, PREEMERGENCE): 0
